pKd: −log10 of the molar value. Values belong to the compound of their own block, whether it stands above or below them.
How the values were obtained:
Format in all cases: binding
[1] = target: HL1.0.1-TO1 (scFv fluorescence-activating protein, FAP); test: fluorescence; details: read-out: TO1-2p-Cy5
[2] = target: R1 (scFv fluorescence-activating protein, FAP); test: fluorescence ligand depletion titration with […] R1; details: read-out: TO
[3] = target: HL1.0.1-TO1 (scFv fluorescence-activating protein, FAP); test: fluorescence ligand depletion titration with […] FAP; details: read-out: TO1-2p
[4] = target: R1 (scFv fluorescence-activating protein, FAP); test: fluorescence; details: read-out: Coumarin-TO

pKd [1]: 7.92
Compound: TO1-2p-Cy5

pKd [2]: 9.77
Compound: CN1/C(=C/c2cc[n+](C)c3ccccc23)Sc2ccccc21 [TO]

pKd [3]: 9.52
Compound: TO1-2p

pKd [4]: 8.96
Compound: coumarin-TO
